“Also recorded” adds a separate entry of the source.
Experiments:
[1] = system: central nervous system effects of THC; experiment: THC challenge PD, 10.5 mg THC + 30 mg Compound 1 (Example 3); type: in vivo, human; settings: THC (10.5 mg) + Compound 1 (30 mg)
Experimental: Following the general methods of Example 1, the study design was adjusted such that groups received either (a) THC (10.5 mg)+placebo or (b) THC (10.5 mg)+Compound 1 (30 mg). Pharmacodynamic properties were then measured for Compound 1.

[2] = Safety/tolerability in the phase 2 THC challenge study (50 and 100 mg Compound 1); settings: for QTcF, mean increase from baseline: 3 hours post dose, 3.1 ms in placebo group
[3] = 50 mg Compound 1 group (20 per arm)
[4] = 100 mg Compound 1 group (20 per arm)

## CC(C)(C)NC(=O)N1CC(O[C@H](c2ccc(Cl)cc2)c2ccccc2C(F)(F)F)C1 [Compound 1, (R)—N-(tert-butyl)-3-((4-chlorophenyl)(2-(trifluoromethyl)phenyl)methoxy)azetidine-1-carboxamide]
[1]
  Body sway, VAS alertness and VAS feeling high vs. placebo: improvements in metrics such as body sway, VAS alertness, and VAS feeling high
[2]; 10.5 mg THC + 50 or 100 mg Compound 1 vs THC/placebo
  VAS nausea: No significant difference overall between treatment groups
[2]; [3]
  Depressed mood, number of subjects: 1 subject
  Feeling hot, number of subjects: 6 subjects
  Hyperhidrosis, number of subjects: 6 subjects
  Nausea, number of subjects: 13 subjects
  Vomiting, number of subjects: 1 subject
[2]; 50 mg Compound 1 group
  QTcF, mean increase from baseline: 7.9 ms
[2]; 50 mg and 100 mg Compound 1 group, placebo group up to ~6 bpm
  Heart rate, mean increase following dosing (up to): 3-4 bpm
[2]; [4]
  Depressed mood, number of subjects: 2 subjects
  Feeling hot, number of subjects: 4 subjects
  Hyperhidrosis, number of subjects: 7 subjects
  Nausea, number of subjects: 8 subjects
  Vomiting, number of subjects: 6 subjects
[2]; 100 mg Compound 1 group
  QTcF, mean increase from baseline: 9.9 ms
[2]; 50 and 100 mg Compound 1 groups, 24 h post dose, 1.4 mol/L in placebo group
  Increase in total bilirubin compared to baseline: 5
[2]; 50 and 100 mg Compound 1 with 10.5 mg THC
  Severity of adverse events: mild and transient except in the case of one subject in the 50 mg Compound 1 group who experienced moderate nausea and vomiting; also recorded: transient and of mild severity, except one case of vomiting of moderate severity in the 50 mg Compound 1 treatment group
[2]; one subject, 100 mg Compound 1 group
  AESI: systolic blood pressure increase compared to baseline: > 30 mmHg
[2]; single doses of 50 and 100 mg Compound 1
  Overall safety and tolerability: safe and well tolerated by most subjects
